Assay results as given in PubChem BioAssay AID2060609 (Molecular Pharmacology Branch, DTP, NCI, 2025).

Test system: 855422-203-R-J1-PDC complex spheroids, viability
Assay: Anticancer human tumor 855422-203-R-J1-PDC patient-derived bladder carcinoma cell line growth inhibition [CLK]
Conditions: for IC50: curve of first compound; for viability, T/C: stronger effect = lower value
In short: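 Patient-derived tumor cells grown as complex spheroids with HUVEC endothelial cells and mesenchymal stem cells, treated with drug combinations. Concentrations descend in half-log steps from near clinical Cmax, or from 10 microM if Cmax unknown.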

[1] = second compound 0.0316 µM, first compound 0.0316 µM
[2] = second compound 0.0316 µM, first compound 0.1 µM
[3] = second compound 0.0316 µM, first compound 0.316 µM
[4] = second compound 0.0316 µM, first compound 1 µM
[5] = second compound 0.0316 µM, first compound 3.16 µM
[6] = second compound 0.0316 µM, first compound 10 µM
[7] = second compound 0.1 µM, first compound 0.0316 µM
[8] = second compound 0.1 µM, first compound 0.1 µM
[9] = second compound 0.1 µM, first compound 0.316 µM
[10] = second compound 0.1 µM, first compound 1 µM
[11] = second compound 0.1 µM, first compound 3.16 µM
[12] = second compound 0.1 µM, first compound 10 µM
[13] = second compound 0.316 µM, first compound 0.0316 µM
[14] = second compound 0.316 µM, first compound 0.1 µM
[15] = second compound 0.316 µM, first compound 0.316 µM
[16] = second compound 0.316 µM, first compound 1 µM
[17] = second compound 0.316 µM, first compound 3.16 µM
[18] = second compound 0.316 µM, first compound 10 µM
[19] = second compound 1 µM, first compound 0.0316 µM
[20] = second compound 1 µM, first compound 0.1 µM
[21] = second compound 1 µM, first compound 0.316 µM
[22] = second compound 1 µM, first compound 1 µM
[23] = second compound 1 µM, first compound 3.16 µM
[24] = second compound 1 µM, first compound 10 µM
[25] = second compound 3.16 µM, first compound 0.0316 µM
[26] = second compound 3.16 µM, first compound 0.1 µM
[27] = second compound 3.16 µM, first compound 0.316 µM
[28] = second compound 3.16 µM, first compound 1 µM
[29] = second compound 3.16 µM, first compound 3.16 µM
[30] = second compound 3.16 µM, first compound 10 µM
[31] = second compound 10 µM, first compound 0.0316 µM
[32] = second compound 10 µM, first compound 0.1 µM
[33] = second compound 10 µM, first compound 0.316 µM
[34] = second compound 10 µM, first compound 1 µM
[35] = second compound 10 µM, first compound 3.16 µM
[36] = second compound 10 µM, first compound 10 µM
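Also: spheroids exposed to drugs for seven days before readout.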
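For viability, T/C in this document: 100% = DMSO vehicle control wells.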

Structure (SMILES): CC(C)CC(NC(=O)C(Cc1ccccc1)NC(=O)c1cnccn1)B(O)O (stereo unspecified) + CN1CCN(c2cc(C(=O)Nc3cc4cc(-c5cnn(C)c5)ccc4cn3)ccn2)CC1
- IC50 (second compound 0.0316 µM): < 0.000949 µM
- IC50 (second compound 0.1 µM): < 0.000949 µM
- IC50 (second compound 0.316 µM): < 0.000949 µM
- IC50 (second compound 1 µM): < 0.000949 µM
- IC50 (second compound 3.16 µM): < 0.000949 µM
- IC50 (second compound 10 µM): < 0.000949 µM
- viability, T/C (second compound 0.0316 µM, first compound 0.000949 µM): 2.28%
- viability, T/C (second compound 0.0316 µM, first compound 0.003 µM): 0.31%
- viability, T/C (second compound 0.0316 µM, first compound 0.00949 µM): 0.27%
- viability, T/C (second compound 0.0316 µM, first compound 0.03 µM): 0.43%
- viability, T/C (second compound 0.0316 µM, first compound 0.0949 µM): 0.41%
- viability, T/C (second compound 0.0316 µM, first compound 0.3 µM): 0.27%
- viability, T/C (second compound 0.1 µM, first compound 0.000949 µM): 2.61%
- viability, T/C (second compound 0.1 µM, first compound 0.003 µM): 0.37%
- viability, T/C (second compound 0.1 µM, first compound 0.00949 µM): 0.29%
- viability, T/C (second compound 0.1 µM, first compound 0.03 µM): 0.43%
- viability, T/C (second compound 0.1 µM, first compound 0.0949 µM): 0.35%
- viability, T/C (second compound 0.1 µM, first compound 0.3 µM): 0.28%
- viability, T/C (second compound 0.316 µM, first compound 0.000949 µM): 0.57%
- viability, T/C (second compound 0.316 µM, first compound 0.003 µM): 0.22%
- viability, T/C (second compound 0.316 µM, first compound 0.00949 µM): 0.27%
- viability, T/C (second compound 0.316 µM, first compound 0.03 µM): 0.27%
- viability, T/C (second compound 0.316 µM, first compound 0.0949 µM): 1.06%
- viability, T/C (second compound 0.316 µM, first compound 0.3 µM): 0.19%
- viability, T/C (second compound 1 µM, first compound 0.000949 µM): 0.21%
- viability, T/C (second compound 1 µM, first compound 0.003 µM): 0.19%
- viability, T/C (second compound 1 µM, first compound 0.00949 µM): 0.12%
- viability, T/C (second compound 1 µM, first compound 0.03 µM): 0.19%
- viability, T/C (second compound 1 µM, first compound 0.0949 µM): 0.16%
- viability, T/C (second compound 1 µM, first compound 0.3 µM): 0.16%
- viability, T/C (second compound 3.16 µM, first compound 0.000949 µM): 0.36%
- viability, T/C (second compound 3.16 µM, first compound 0.003 µM): 0.15%
- viability, T/C (second compound 3.16 µM, first compound 0.00949 µM): 1.95%
- viability, T/C (second compound 3.16 µM, first compound 0.03 µM): 0.11%
- viability, T/C (second compound 3.16 µM, first compound 0.0949 µM): 0.78%
- viability, T/C (second compound 3.16 µM, first compound 0.3 µM): 0.11%
- viability, T/C (second compound 10 µM, first compound 0.000949 µM): 0.29%
- viability, T/C (second compound 10 µM, first compound 0.003 µM): 0.19%
- viability, T/C (second compound 10 µM, first compound 0.00949 µM): 2.1%
- viability, T/C (second compound 10 µM, first compound 0.03 µM): 0.2%
- viability, T/C (second compound 10 µM, first compound 0.0949 µM): 0.22%
- viability, T/C (second compound 10 µM, first compound 0.3 µM): 0.32%

Structure (SMILES): CC1COCCN1c1cc(C2(S(C)(=N)=O)CC2)nc(-c2ccnc3[nH]ccc23)n1 (stereo unspecified) + CN1CCN(c2cc(C(=O)Nc3cc4cc(-c5cnn(C)c5)ccc4cn3)ccn2)CC1
- IC50 (second compound 0.0316 µM): 2.25 µM
- IC50 (second compound 0.1 µM): 1.85 µM
- IC50 (second compound 0.316 µM): < 0.0316 µM
- IC50 (second compound 1 µM): < 0.0316 µM
- IC50 (second compound 3.16 µM): < 0.0316 µM
- IC50 (second compound 10 µM): < 0.0316 µM
- viability, T/C [1]: 103%
- viability, T/C [2]: 117%
- viability, T/C [3]: 89.6%
- viability, T/C [4]: 93%
- viability, T/C [5]: 32%
- viability, T/C [6]: 10.6%
- viability, T/C [7]: 70.6%
- viability, T/C [8]: 91%
- viability, T/C [9]: 80.3%
- viability, T/C [10]: 80.1%
- viability, T/C [11]: 24%
- viability, T/C [12]: 12.2%
- viability, T/C [13]: 9.48%
- viability, T/C [14]: 14%
- viability, T/C [15]: 7.7%
- viability, T/C [16]: 6%
- viability, T/C [17]: 5.18%
- viability, T/C [18]: 3.25%
- viability, T/C [19]: 0.34%
- viability, T/C [20]: 0.27%
- viability, T/C [21]: 1.14%
- viability, T/C [22]: 0.17%
- viability, T/C [23]: 0.14%
- viability, T/C [24]: 0.19%
- viability, T/C [25]: 0.75%
- viability, T/C [26]: 0.61%
- viability, T/C [27]: 0.62%
- viability, T/C [28]: 0.51%
- viability, T/C [29]: 0.85%
- viability, T/C [30]: 0.37%
- viability, T/C [31]: 0.44%
- viability, T/C [32]: 0.31%
- viability, T/C [33]: 0.9%
- viability, T/C [34]: 0.36%
- viability, T/C [35]: 1.72%
- viability, T/C [36]: 0.63%

Structure (SMILES): O=C(c1cc(Cc2n[nH]c(=O)c3ccccc23)ccc1F)N1CCN(C(=O)C2CC2)CC1 + CN1CCN(c2cc(C(=O)Nc3cc4cc(-c5cnn(C)c5)ccc4cn3)ccn2)CC1
- IC50 (second compound 0.0316 µM): > 10 µM
- IC50 (second compound 0.1 µM): > 10 µM
- IC50 (second compound 0.316 µM): < 0.0316 µM
- IC50 (second compound 1 µM): < 0.0316 µM
- IC50 (second compound 3.16 µM): < 0.0316 µM
- IC50 (second compound 10 µM): < 0.0316 µM
- viability, T/C [1]: 97.5%
- viability, T/C [2]: 93.4%
- viability, T/C [3]: 94.5%
- viability, T/C [4]: 119%
- viability, T/C [5]: 106%
- viability, T/C [6]: 91.2%
- viability, T/C [7]: 79.5%
- viability, T/C [8]: 82%
- viability, T/C [9]: 86.8%
- viability, T/C [10]: 89.6%
- viability, T/C [11]: 83.5%
- viability, T/C [12]: 80.8%
- viability, T/C [13]: 7.7%
- viability, T/C [14]: 9.07%
- viability, T/C [15]: 12.2%
- viability, T/C [16]: 13.9%
- viability, T/C [17]: 9.53%
- viability, T/C [18]: 7.3%
- viability, T/C [19]: 0.24%
- viability, T/C [20]: 0.27%
- viability, T/C [21]: 0.24%
- viability, T/C [22]: 0.2%
- viability, T/C [23]: 2.03%
- viability, T/C [24]: 0.16%
- viability, T/C [25]: 0.76%
- viability, T/C [26]: 0.67%
- viability, T/C [27]: 1.9%
- viability, T/C [28]: 0.61%
- viability, T/C [29]: 1.44%
- viability, T/C [30]: 0.45%
- viability, T/C [31]: 0.43%
- viability, T/C [32]: 0.39%
- viability, T/C [33]: 0.38%
- viability, T/C [34]: 0.33%
- viability, T/C [35]: 0.7%
- viability, T/C [36]: 0.32%
